Measurements: patent US8188102B2, “Amide derivative for inhibiting the growth of cancer cells” (Hanmi Holdings Co., Ltd., priority 2007, dated 2012)

Assays:
[1] = test system: SK-Br3 breast cancer cell line; experiment: Cancer cell growth inhibition, SK-Br3 (SRB); details: Homo sapiens, SK-BR-3, 72 h, read-out: ID50 (nM) SK-Br3
[2] = test system: A431 skin cancer cell line; experiment: Cancer cell growth inhibition, A431 (SRB); details: Homo sapiens, A-431, 72 h, read-out: ID50 (nM) A431

Row | IC50 [1] | IC50 [2] | SMILES
1 | 0.8 nM | 15 nM | COc1cc2ncnc(Nc3ccc(F)c(Cl)c3F)c2cc1OC1CN(C(=O)/C=C\CN(C)C)C1 [Example 112, (Z)-1-(3-(4-(3-chloro-2,4-difluorophenylamino)-7-methoxyquinazolin-6-yloxy)azetidin-1-yl)-4-(dimethylamino)but-2-en-1-one]
2 | 0.7 nM | 2.4 nM | C=C(CN1CCCCC1)C(=O)N1CC(Oc2cc3c(Nc4cccc(Cl)c4F)ncnc3cc2OC)C1 [Example 107, 1-(3-(4-(3-chloro-2-fluorophenylamino)-7-methoxyquinazolin-6-yloxy)azetidin-1-yl)-2-(piperidin-1-ylmethyl)prop-2-en-1-one]
3 | 0.5 nM | 20 nM | C=CC(=O)N1CC[C@H](Oc2cc3c(Nc4ccc(F)c(Cl)c4F)ncnc3cc2OC)C[C@H]1C(=O)NCCCO [Example 131, (2S,4S)-1-acryloyl-4-(4-(3-chloro-2,4-difluorophenylamino)-7-methoxyquinazolin-6-yloxy)-N-(3-hydroxypropyl)piperidin-2-carboxamide]
4 | 262 nM | 41 nM | CNC(=O)/C=C/C(=O)N1CC(Oc2cc3c(Nc4ccc(F)c(Cl)c4F)ncnc3cc2OC)C1 [Example 28, (E)-4-(3-(4-(3-chloro-2,4-difluorophenylamino)-7-methoxyquinazolin-6-yloxy)azetidin-1-yl)-N-methyl-4-oxobut-2-ene amide]
5 | 604 nM | 53 nM | COc1cc2ncnc(Nc3ccc(F)c(Cl)c3F)c2cc1O[C@H]1CCN(C(=O)C#CCCN2CCN(C)CC2)C1 [Example 4, 1-((3S)-3-(4-(3-chloro-2,4-difluorophenylamino)-7-methoxyquinazolin-6-yloxy)pyrrolidin-1-yl)-5-(4-methylpiperazin-1-yl)pent-2-yn-1-one]
6 | 10 nM | 35 nM | C=CC(=O)N1CCC(Oc2cc3c(Nc4ccc(Cl)c(C#N)c4)ncnc3cc2OC)CC1 [Example 67, 5-(6-(1-acryloylpiperidin-4-yloxy)-7-methoxyquinazolin-4-ylamino)-2-chlorobenzonitrile]
7 | 3 nM | 43 nM | C=CC(=O)N1CCC(Oc2cc3c(Nc4ccc(F)c(F)c4F)ncnc3cc2OC)CC1 [Example 45, 1-(4-(7-methoxy-4-(2,3,4-trifluorophenylamino)quinazolin-6-yloxy)piperidin-1-yl)pro-2-pen-1-one]
8 | 469 nM | 516 nM | COc1cc2ncnc(Nc3ccc(Cl)c(Cl)c3F)c2cc1OC1CCN(C(=O)/C=C/C(=O)O)CC1 [Example 87, (E)-4-(4-(4-(3,4-dichloro-2-fluorophenylamino)-7-methoxyquinazolin-6-yloxy)piperidin-1-yl)-4-oxobut-2-enoic acid]
9 | 3 nM | 514 nM | C=CC(=O)N1CCC(Oc2cc3c(N[C@H](C)c4ccccc4)ncnc3cc2OC)CC1 [Example 35, (R)-1-(4-(7-methoxy-4-(1-phenylethylamino)quinazolin-6-yloxy)piperidin-1-yl)pro-2-pen-1-one]
10 | 1300 nM | 37 nM | CC#CC(=O)N1CC[C@H](Oc2cc3c(Nc4ccc(F)c(Cl)c4F)ncnc3cc2OC)C1 [Example 3, 1-((3S)-3-(4-(3-chloro-2,4-difluorophenylamino)-7-methoxyquinazolin-6-yloxy)pyrrolidin-1-yl)but-2-yn-1-one]
11 | 11 nM | 142 nM | C=CC(=O)N1CCC(Oc2cc3c(Nc4cccc(N(C)C)c4)ncnc3cc2OC)CC1 [Example 64, 1-(4-(4-(3-(dimethylamino)phenylamino)-7-methoxyquinazolin-6-yloxy)piperidin-1-yl)pro-2-pen-1-one]
12 | 3.5 nM | 2.7 nM | C=C(CN(C)C)C(=O)N1CCC(Oc2cc3c(Nc4ccc(F)c(Cl)c4F)ncnc3cc2OC)CC1 [Example 109, 1-(4-(4-(3-chloro-2,4-difluorophenylamino)-7-methoxyquinazolin-6-yloxy)piperidin-1-yl)-2-((dimethylamino)methyl)prop-2-en-1-one]
13 | 15 nM | 76 nM | COc1cc2ncnc(Nc3cccc(Cl)c3F)c2cc1OC1CCN(C(=O)/C=C/CN(C)C)CC1 [Example 100, (E)-1-(4-(4-(3-chloro-2-fluorophenylamino)-7-methoxyquinazolin-6-yloxy)piperidin-1-yl)-4-(dimethylamino)but-2-en-1-one]
14 | 50 nM | 400 nM | C=CC(=O)Nc1cccc(Nc2ncnc3cc(OC)c(OC4CCN(C(=O)C=C)CC4)cc23)c1 [Example 75, N-(3-(6-(1-acryloylpiperidin-4-yloxy)-7-methoxyquinazolin-4-ylamino)phenyl)acrylamide]
15 | 65 nM | 109 nM | C=CC(=O)N1CCC(Oc2cc3c(Nc4ccc(O)c(Cl)c4)ncnc3cc2OC)CC1 [Example 78, 1-(4-(4-(3-chloro-4-hydroxyphenylamino)-7-methoxyquinazolin-6-yloxy)piperidin-1-yl)pro-2-pen-1-one]
16 | 6 nM | 5 nM | C=CC(=O)N1CC[C@H](Oc2cc3c(Nc4ccc(F)c(Cl)c4F)ncnc3cc2OC)C[C@H]1C(=O)OC [Example 119, (2S,4S)-methyl 1-acryloyl-4-(4-(3-chloro-2,4-difluorophenylamino)-7-methoxyquinazolin-6-yloxy)piperidin-2-carboxylate]

Row | IC50 [1] | IC50 [2] | SMILES
17 | 0.7 nM | 3.7 nM | C=CC(=O)N1CCC(Oc2cc3c(Nc4cccc(C#N)c4)ncnc3cc2OC)CC1 [Example 56, 3-(6-(1-acryloylpiperidin-4-yloxy)-7-methoxyquinazolin-4-ylamino)benzonitrile]
18 | > 1000 nM | 187 nM | COc1cc2ncnc(Nc3ccc(F)c(Cl)c3F)c2cc1OC1CCN(C(=O)/C=C/C(=O)NO)CC1 [Example 88, (E)-4-(4-(4-(3-chloro-2,4-difluorophenylamino)-7-methoxyquinazolin-6-yloxy)piperidin-1-yl)-N-hydroxy-4-oxobut-2-enamide]
19 | 5 nM | 12 nM | C=CC(=O)N1CC[C@H](Oc2cc3c(Nc4ccc(F)c(Cl)c4F)ncnc3cc2OC)C[C@H]1C(=O)NCCC [Example 123, (2S,4S)-1-acryloyl-4-(4-(3-chloro-2,4-difluorophenylamino)-7-methoxyquinazolin-6-yloxy)-N-propylpiperidin-2-carboxamide]
20 | 7 nM | 18 nM | COc1cc2ncnc(Nc3ccc(F)c(Cl)c3F)c2cc1OCCNC(=O)/C=C/CN(C)C [Example 103, (E)-N-(2-(4-(3-chloro-2,4-difluorophenylamino)-7-methoxyquinazolin-6-yloxy)ethyl)-4-(dimethylamino)but-2-enamide]
21 | 2 nM | 10 nM | C=CC(=O)N1CCC(Oc2cc3c(Nc4ccc(OCc5cccc(F)c5)c(Cl)c4)ncnc3cc2OC)CC1 [Example 54, 1-(4-(4-(3-chloro-4-(3-fluorobenzyloxy)phenylamino)-7-methoxyquinazolin-6-yloxy)piperidin-1-yl)pro-2-pen-1-one]
22 | 1670 nM | 531 nM | C=CC(=O)N1CC[C@H](Oc2cc3c(Nc4cccc(Cl)c4F)ncnc3cc2OC)C1 [Example 6, 1-((3S)-3-(4-(3-chloro-2-fluorophenylamino)-7-methoxyquinazolin-6-yloxy)pyrrolidin-1-yl)pro-2-pen-1-one]
23 | 45 nM | 29 nM | C=CC(=O)N1CCC(Oc2cc3c(Nc4ccc5c(c4)CCC5)ncnc3cc2OC)CC1 [Example 49, 1-(4-(4-(2,3-dihydro-1H-inden-5-ylamino)-7-methoxyquinazolin-6-yloxy)piperidin-1-yl)pro-2-pen-1-one]
24 | 1.7 nM | 65 nM | C=CC(=O)N1CCC(Oc2cc3c(Nc4ccccc4Cl)ncnc3cc2OC)CC1 [Example 69, 1-(4-(4-(2-chlorophenylamino)-7-methoxyquinazolin-6-yloxy)piperidin-1-yl)pro-2-pen-1-one]
25 | 327 nM | 883 nM | C=CC(=O)N1CC(Oc2cc3c(Nc4ccc(F)c(Cl)c4F)ncnc3cc2OCCOC)C1 [Example 116, 1-(3-(4-(3-chloro-2,4-difluorophenylamino)-7-(2-methoxyethoxy)quinazolin-6-yloxy)azetidin-1-yl)prop-2-en-1-one]
26 | 21 nM | 8 nM | COC(=O)/C=C\C(=O)N1CCC(Oc2cc3c(Nc4ccc(Cl)c(Cl)c4F)ncnc3cc2OC)CC1 [Example 84, (Z)-methyl 4-(4-(4-(3,4-dichloro-2-fluorophenylamino)-7-methoxyquinazolin-6-yloxy)piperidin-1-yl)-4-oxobut-2-enoate]
27 | 1 nM | 11 nM | C=CC(=O)N1CCC(Oc2cc3c(Nc4cccc([N+](=O)[O-])c4)ncnc3cc2OC)CC1 [Example 74, 1-(4-(7-methoxy-4-(3-nitrophenylamino)quinazolin-6-yloxy)piperidin-1-yl)pro-2-pen-1-one]
28 | 6 nM | 7 nM | C=CC(=O)N1CCC(Oc2cc3c(Nc4ccc(Br)c(F)c4)ncnc3cc2OC)CC1 [Example 62, 1-(4-(4-(4-bromo-3-fluorophenylamino)-7-methoxyquinazolin-6-yloxy)piperidin-1-yl)pro-2-pen-1-one]
29 | 94 nM | 25 nM | CN(C)C/C=C/C(=O)N1CC[C@H](Oc2ccc3ncnc(Nc4ccc(F)c(Cl)c4F)c3c2)C1 [Example 97, (E)-1-((3S)-3-(4-(3-chloro-2,4-difluorophenylamino)quinazolin-6-yloxy)pyrrolidin-1-yl)-4-(dimethylamino)but-2-en-1-one]
30 | 268 nM | 190 nM | CC#CC(=O)N1CCC(Oc2cc3c(Nc4ccc(F)c(Cl)c4F)ncnc3cc2OC)CC1 [Example 80, 1-(4-(4-(3-chloro-2,4-difluorophenylamino)-7-methoxyquinazolin-6-yloxy)piperidin-1-yl)but-2-yn-1-one]
31 | 1 nM | 8 nM | C=CC(=O)N1CCC(Oc2cc3c(Nc4ccc(F)c(C#N)c4)ncnc3cc2OC)CC1 [Example 66, 5-(6-(1-acryloylpiperidin-4-yloxy)-7-methoxyquinazolin-4-ylamino)-2-fluorobenzonitrile]
